# In US9504858B2 (Colgate-Palmolive Company, priority 2012, dated 2016):
# Legend:
# [1] = Hydrolysis reaction: pH and turbidity of diluted ZLC solutions before and after aging; format: physicochemical; settings: for pH after aging / turbidity after aging (NTU): 37° C. oven over 5 hours
# Method: A 185 mg/ml ZLC solution is prepared and diluted several-fold and aged in a 37° C. oven over 5 hours for turbidity studies. […] Turbidity of the solutions is measured using a nephelometer, results being given in nephelometric turbidity units (NTU).
# bacterial culture = assay: Zone of inhibition test; format: cell-based; settings: 20 μl on filter paper discs, TSA plates, 20 hours at 37° C.
# Method: A zone of inhibition test is conducted on several materials: zinc oxide, lysine hydrochloride, and ZLC. The method involves making a lawn of freshly prepared bacterial culture on TSA (trypticase soy agar) plates. Sterile filter paper discs are seeded with 20 μl of test sample (supernatant or mixture). Sample-coated filter paper discs are air dried and applied onto the bacterial lawn on TSA plates. Plates are incubated for 20 hours at 37° C.
# [2] = target: Bovine Serum Albumin (BSA) (Bos taurus, UniProt P02769); assay: Flocculation of ZLC in the presence of protein (BSA); format: physicochemical; settings: ZLC 15 mg/ml, 5 hours, 37° C.
# Method: Turbidity and pH of solutions are measured 5 hours after the mixtures were placed in a 37° C. oven, and the results are shown in Table 3: […]
# [3] = sample 3: 1% BSA, pH adjusted to 5.13
# Sequence of Bovine Serum Albumin (BSA) (P02769 25-607): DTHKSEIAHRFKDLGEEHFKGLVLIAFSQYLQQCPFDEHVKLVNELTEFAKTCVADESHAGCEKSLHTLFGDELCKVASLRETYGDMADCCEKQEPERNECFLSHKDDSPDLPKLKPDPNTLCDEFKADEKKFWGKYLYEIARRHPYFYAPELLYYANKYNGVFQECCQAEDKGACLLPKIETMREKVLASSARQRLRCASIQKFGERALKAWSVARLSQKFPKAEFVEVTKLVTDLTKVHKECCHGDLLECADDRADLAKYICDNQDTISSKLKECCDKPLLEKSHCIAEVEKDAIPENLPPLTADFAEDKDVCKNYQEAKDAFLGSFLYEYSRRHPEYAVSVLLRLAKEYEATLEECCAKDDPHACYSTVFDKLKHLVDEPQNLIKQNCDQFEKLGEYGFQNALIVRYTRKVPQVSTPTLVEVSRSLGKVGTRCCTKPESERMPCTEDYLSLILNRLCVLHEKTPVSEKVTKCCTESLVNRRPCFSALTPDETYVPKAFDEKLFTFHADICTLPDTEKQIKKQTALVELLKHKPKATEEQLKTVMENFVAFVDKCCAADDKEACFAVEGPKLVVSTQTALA
substance,measurement,setting,value
[Zn(C6H14N2O2)2Cl]^+Cl^− [ZLC],initial pH,[1]; 5.78 mg/ml,8.0
same,initial turbidity (NTU),[1]; 5.78 mg/ml,40.1 NTU
same,pH after aging,[1]; 5.78 mg/ml,8.0
same,turbidity after aging (NTU),[1]; 5.78 mg/ml,>1000 NTU
same,initial pH,[1]; 11.56 mg/ml,7.8
same,initial turbidity (NTU),[1]; 11.56 mg/ml,14.8 NTU
same,pH after aging,[1]; 11.56 mg/ml,7.8
same,turbidity after aging (NTU),[1]; 11.56 mg/ml,>1000 NTU
same,initial pH,[1]; 23.125 mg/ml,7.7
same,initial turbidity (NTU),[1]; 23.125 mg/ml,0.70 NTU
same,pH after aging,[1]; 23.125 mg/ml,7.7
same,turbidity after aging (NTU),[1]; 23.125 mg/ml,247.4 NTU
same,initial pH,[1]; 46.25 mg/ml,7.4
same,initial turbidity (NTU),[1]; 46.25 mg/ml,1.48 NTU
same,pH after aging,[1]; 46.25 mg/ml,7.4
same,turbidity after aging (NTU),[1]; 46.25 mg/ml,2.81 NTU
same,initial pH,[1]; 92.5 mg/ml,7.0
same,initial turbidity (NTU),[1]; 92.5 mg/ml,2.78 NTU
same,pH after aging,[1]; 92.5 mg/ml,7.0
same,turbidity after aging (NTU),[1]; 92.5 mg/ml,2.60 NTU
same,initial pH,[1]; 185 mg/ml,6.8
same,initial turbidity (NTU),[1]; 185 mg/ml,4.75 NTU
same,pH after aging,[1]; 185 mg/ml,6.8
same,turbidity after aging (NTU),[1]; 185 mg/ml,4.08 NTU
same,behaviour of the complex upon dilution,"[1]; 8×, 16× and 32× diluted solutions, precipitates identified by PXRD","disassociates upon dilution, with consequent precipitation of zinc oxide"
same,antibacterial activity (zone of inhibition),bacterial culture,better antibacterial activity than zinc oxide alone or lysine hydrochloride alone
same,Turbidity(NTU),"[2]; sample 1: DI water, 0% BSA",357 NTU
same,pH,"[2]; sample 1: DI water, 0% BSA",7.98
same,Turbidity(NTU),"[2]; sample 2: 1% BSA, pH 7.17",>1000 NTU
same,pH,"[2]; sample 2: 1% BSA, pH 7.17",8.16
same,Turbidity(NTU),[2]; [3],>1000 NTU
same,pH,[2]; [3],7.97
